In ChEMBL document CHEMBL1287665, “Design, synthesis and inhibitory effect of pentapeptidyl chloromethyl ketones on proteinase K” (Bioorg Med Chem, 2010):
The source made the active and inactive calls.

Assays:
Conditions in all cases: Parengyodontium album
[1] = target: Proteinase K (Engyodontium album) (UniProt P06873); experiment: Inhibition of Engyodontium album proteinase K proteolytic activity in human HeLa cell lysate using beta-actin primer/probes of TaqMan gene expression Cells-to-CT kit at 0.5 mM after 60 mins by qRT-PCR analysis; format: cell-free
[2] = target: Proteinase K (Engyodontium album) (UniProt P06873); experiment: Inhibition of Engyodontium album proteinase K proteolytic activity assessed as digestion of bovine serum albumin at 0.75 mM after 10 mins using coomassie blue staining by protein gel analysis
[3] = target: Proteinase K (Engyodontium album) (UniProt P06873); experiment: Inhibition of Engyodontium album proteinase K proteolytic activity assessed as concentration required to obtain cycle threshold 26 using TaqMan gene expression Cells-to-CT kit after 60 mins by qRT-PCR analysis
[4] = target: Proteinase K (Engyodontium album) (UniProt P06873); experiment: Ratio of compound to MeO-Suc-AAAPV-CH2Cl for inhibition of Engyodontium album proteinase K proteolytic activity assessed as concentration required to obtain cycle threshold 26 using TaqMan gene expression Cells-to-CT kit after 60 mins by RT-PCR analysis
[5] = target: Proteinase K (Engyodontium album) (UniProt P06873); experiment: Inhibition of Engyodontium album proteinase K proteolytic activity assessed as digestion of bovine serum albumin at 0.25 mM after 10 mins using coomassie blue staining by protein gel analysis
[6] = target: Proteinase K (Engyodontium album) (UniProt P06873); experiment: Inhibition of Engyodontium album proteinase K proteolytic activity in human HeLa cell lysate using beta-actin primer/probes of TaqMan gene expression Cells-to-CT kit at 0.10 mM after 60 mins by qRT-PCR analysis; format: cell-free

Proteinase K (Engyodontium album), sequence (P06873 whole entry): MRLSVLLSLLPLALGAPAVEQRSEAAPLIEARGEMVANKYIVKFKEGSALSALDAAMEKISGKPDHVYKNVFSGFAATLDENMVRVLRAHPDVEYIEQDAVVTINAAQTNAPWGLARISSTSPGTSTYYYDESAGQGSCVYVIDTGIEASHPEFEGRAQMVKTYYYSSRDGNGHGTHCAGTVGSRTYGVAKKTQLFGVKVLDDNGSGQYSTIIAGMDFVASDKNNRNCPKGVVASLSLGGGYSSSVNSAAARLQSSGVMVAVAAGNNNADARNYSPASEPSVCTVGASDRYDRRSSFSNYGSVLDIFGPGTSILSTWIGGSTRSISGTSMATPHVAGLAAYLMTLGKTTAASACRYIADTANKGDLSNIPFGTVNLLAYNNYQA

COC(=O)CCC(=O)N[C@@H](C)C(=O)N[C@H](C)C(=O)N[C@@H](C)C(=O)N1CCC[C@H]1C(=O)N[C@@H](C(=O)CCl)C(C)C
inhibition [1]: Active | inhibition [2]: inactive

COC(=O)CCC(=O)N[C@@H](C)C(=O)N[C@H](C)C(=O)N[C@@H](C)C(=O)N1CCC[C@H]1C(=O)N[C@H](Cc1ccccc1)C(=O)CCl
Activity [3]: 0.1 mM | Ratio [4]: 7.5 | inhibition [5]: Active | inhibition [6]: Active
